Molecules are shown by their SMILES.

Drawing on patent US20200306204A1, “TRANSDERMAL DELIVERY SYSTEM COMPRISING BUPRENORPHINE” (LTS Lohmann Therapie-Systeme AG, priority 2011, published 2020), this text covers Solubility in polysiloxanes for 1 molecule.

This series in a line: Solubility.

Regarding `CO[C@]12CC[C@@]3(C[C@@H]1[C@](C)(O)C(C)(C)C)[C@H]1Cc4ccc(O)c5c4[C@@]3(CCN1CC1CC1)[C@H]2O5` [Buprenorphine, (5R,6R,7R,9R,13S,14S)-17-Cyclopropylmethyl-7-[(S)-3,3-dimethyl-2-hydroxybutan-2-yl]-6-methoxy-4,5-epoxy-6,14-ethanomorphinan-3-ol], the Solubility in polysiloxanes entry is on record as “extremely low solubility”.
